Measured values from article PMC6136712, “Ex vivo drug sensitivity testing as a means for drug repurposing in esophageal adenocarcinoma” (PLoS ONE, 2018).
Counter-ions that a name gives are not always drawn.

System: normal esophageal epithelium cell line EACN42
Test: FDA library drug sensitivity testing (CellTiter-Glo, 72 h), normal control cells
Type: cell-based, human
Parameters: key to DSS: modified drug sensitivity score (DSSmod) from dose-response curve fit
Details: 72 h; for EC50: cell viability (ATP), max test concentration 10μM
Protocol: The normal esophageal epithelium cell line EACN42 was established in the Capobianco laboratory. The cell lines was derived from human normal epithelium and immortalized using HPV E6-E7.
Drug sensitivity testing (DST) was performed as described previously. […] Individual drugs were dissolved in 100% DMSO and tested in duplicates starting at a maximal test concentration of 10μM then over a 20,000-fold concentration range to generate dose response curves. Wells with assay buffer containing DMSO served as negative controls. 1000 exponentially growing cells were seeded per well in 384-well micro-titer plates and incubated in the presence of compounds in a humidified environment at 37°C and 5% CO2. After 72 hours of treatment, cell viability was assessed by measuring ATP levels via bioluminescence (CellTiter-Glo, Promega) according to manufactures recommendations. Interpretation of curve parameters was performed according to the modified drug sensitivity scoring (DSSmod) function developed by Swords et al. […] Given in this way, the sDSSmod incorporated information on each drug’s potency, efficacy, effect range and therapeutic index, making it possible to prioritize compounds over multiple parameters using a single numerical metric. […] All calculations and scoring routines are implemented in MatLab and additional curve fitting and statistical analyses are performed in GraphPad prism.

[1] = drug sensitivity score, EACN42 normal esophageal cells
[2] = Homo sapiens, EACN42 normal esophageal cells

SMILES	DSS [1]	further results
C=C1C[C@@H]2[C@H](CC[C@]3(C)C(=O)CC[C@@H]23)[C@@]2(C)C=CC(=O)C=C12 [Exemestane]	–	DSS: 0
O=C1[C@H](CC[C@H](O)c2ccc(F)cc2)[C@@H](c2ccc(O)cc2)N1c1ccc(F)cc1 [Ezetimibe]	0	–
CC(=O)OCC(CCn1cnc2cnc(N)nc21)COC(C)=O [Famciclovir]	0	EC50 [2]: 1120 nM
Cc1nc(-c2ccc(OCC(C)C)c(C#N)c2)sc1C(=O)O [Febuxostat]	0	EC50 [2]: > 10000 nM
Cl.Cl.Fc1ccc(C(c2ccc(F)cc2)N2CCN(C/C=C/c3ccccc3)CC2)cc1 [Flunarizine 2HCl]	0.03	–
CC(C)C(=O)Nc1ccc([N+](=O)[O-])c(C(F)(F)F)c1 [Flutamide]	0	–
O=c1[nH]c(=O)n(C2CCCO2)cc1F (stereo not drawn) [Ftorafur]	0	–
C[C@]12CC[C@@H]3c4ccc(O)cc4C[C@@H](CCCCCCCCC[S+]([O-])CCCC(F)(F)C(F)(F)F)[C@H]3[C@@H]1CC[C@@H]2O (stereo partly drawn) [Fulvestrant]	0	–
COc1cc2ncnc(Nc3ccc(F)c(Cl)c3)c2cc1OCCCN1CCOCC1 [Gefitinib]	0	–
O=C(O)C1=CO[C@@H](O[C@@H]2O[C@H](CO)[C@@H](O)[C@H](O)[C@H]2O)[C@@H]2C(CO)=CC[C@H]12 [Geniposidic acid]	0	–
C[C@]12CCC(=O)C=C1CC[C@@H]1[C@@H]2[C@@H](O)C[C@@]2(C)[C@H]1CC[C@]2(O)C(=O)CO [Hydrocortisone]	0	–
NC(=O)NO [Hydroxyurea]	0	–
CN[C@H]1C[C@@H](N)[C@H](O)[C@@H](O[C@@H]2O[C@H](CO)[C@H](O)[C@@H]3OC4(O[C@H]23)O[C@H]([C@@H](N)CO)[C@H](O)[C@H](O)[C@H]4O)[C@@H]1O (stereo partly drawn) [Hygromycin B]	3.8	EC50 (EACN42 normal esophageal cells): 7770 nM
O=P1(NCCCl)OCCCN1CCCl (stereo not drawn) [Ifosfamide]	0	–
Cc1ccc(NC(=O)c2ccc(CN3CCN(C)CC3)cc2)cc1Nc1nccc(-c2cccnc2)n1 [Imatinib]	0	–
CC(C)Cn1cnc2c(N)nc3ccccc3c21 [Imiquimod]	0	EC50 [2]: 2000 nM
CC1=C(/C=C/C(C)=C/C=C/C(C)=C\C(=O)O)C(C)(C)CCC1 [Isotretinoin]	0	–
CCC(C)n1ncn(-c2ccc(N3CCN(c4ccc(OCC5COC(Cn6cncn6)(c6ccc(Cl)cc6Cl)O5)cc4)CC3)cc2)c1=O (stereo not drawn) [Itraconazole]	0	–
Cl.N=C(N)NCCC[C@H](N)C(=O)O [L-Arginine HCl]	0	EC50 (EACN42 normal esophageal cells): 10 nM
Nc1nnc(-c2cccc(Cl)c2Cl)c(N)n1 [Lamotrigine]	0	–
CS(=O)(=O)CCNCc1ccc(-c2ccc3ncnc(Nc4ccc(OCc5cccc(F)c5)c(Cl)c4)c3c2)o1 [Lapatinib]	0	EC50 [2]: 40 nM
Nc1cccc2c1CN(C1CCC(=O)NC1=O)C2=O (stereo not drawn) [Lenalidomide]	0	–

SMILES	DSS [1]	further results
N#Cc1ccc(C(c2ccc(C#N)cc2)n2cncn2)cc1 [Letrozole]	0	EC50 [2]: 60 nM
Nc1nc2c(c(=O)[nH]1)N(C=O)C(CNc1ccc(C(=O)N[C@@H](CCC(=O)O)C(=O)O)cc1)CN2 (stereo partly drawn) [Leucovorin Calcium]	0.04	EC50 [2]: 90 nM
CC#CCn1c(N2CCC[C@@H](N)C2)nc2c1c(=O)n(Cc1nc(C)c3ccccc3n1)c(=O)n2C [Linagliptin]	0	EC50 [2]: 380 nM
CCC[C@@H]1C[C@@H](C(=O)N[C@@H]([C@H]2O[C@H](SC)[C@H](O)[C@@H](O)[C@H]2O)[C@@H](C)O)N(C)C1 [Lincomycin hydrochloride]	0	EC50 [2]: 990 nM
O=NN(CCCl)C(=O)NC1CCCCC1 [Lomustine]	0	–
O=C(O)c1nn(Cc2ccc(Cl)cc2Cl)c2ccccc12 [Lonidamine]	0	–
Cc1ccc(NC(=O)c2ccc(CN3CCN(C)CC3)cc2)cc1Nc1nc(-c2cccnc2)cs1 [Masitinib]	0	–
CC(=O)O[C@]1(C(C)=O)CC[C@H]2[C@@H]3C[C@H](C)C4=CC(=O)CC[C@]4(C)[C@H]3CC[C@@]21C [Medroxyprogesterone acetate]	0	–
CC(=O)O[C@]1(C(C)=O)CC[C@H]2[C@@H]3C=C(C)C4=CC(=O)CC[C@]4(C)[C@H]3CC[C@@]21C [Megestrol Acetate]	0	–
C=C1c2cccc(O)c2C(=O)C2=C(O)[C@]3(O)C(=O)C(C(N)=O)=C(O)[C@@H](N(C)C)[C@@H]3[C@@H](O)[C@H]12 [Methacycline hydrochloride]	0	EC50 [2]: > 10000 nM
Cn1nnc2c(C(N)=O)ncn2c1=O [Methazolastone]	0	–
CC#C[C@]1(O)CC[C@H]2[C@@H]3CCC4=CC(=O)CCC4=C3[C@@H](c3ccc(N(C)C)cc3)C[C@@]21C [Mifepristone]	0	–
Nc1nc(CC(=O)Nc2ccc(CCNC[C@H](O)c3ccccc3)cc2)cs1 [Mirabegron]	0	EC50 [2]: 20 nM
Clc1ccc(C(c2ccccc2Cl)C(Cl)Cl)cc1 (stereo not drawn) [Mitotane]	0	EC50 [2]: 6 nM
NC(=O)c1ncn([C@@H]2O[C@H](CO)[C@@H](O)[C@H]2O)c1O [Mizoribine]	0	EC50 [2]: 6 nM
N=C(N)/N=C(\N)N1CCOCC1 [Moroxydine]	0	–
C=CCN1CC[C@]23c4c5ccc(O)c4O[C@H]2C(=O)CC[C@@]3(O)[C@H]1C5 [Naloxone HCl]	0	–
COc1nc(N)nc2c1ncn2[C@@H]1O[C@H](CO)[C@@H](O)[C@@H]1O [Nelarabine]	0	–
COC(=O)C1=C(C#N)NC(C)=C(C(=O)OC(C)C)C1c1cccc([N+](=O)[O-])c1 (stereo not drawn) [Nilvadipine]	0	EC50 [2]: 10 nM
COc1ccc2c(c1OC)C(=O)O[C@@H]2[C@H]1c2c(cc3c(c2OC)OCO3)CCN1C [Noscapine HCl]	0	–
CC1COc2c(N3CCN(C)CC3)c(F)cc3c(=O)c(C(=O)O)cn1c23 (stereo not drawn) [Ofloxacin]	0	–
O=C1[O][Pt]2([NH][C@@H]3CCCC[C@H]3[NH]2)[O]C1=O [Oxaliplatin]	0.06	treatment response in words (EACN42 normal esophageal cells): minimal treatment effects

SMILES	DSS [1]	further results
C[C@@]12C[C@@]3(O)O[C@@H](O1)[C@]1(COC(=O)c4ccccc4)[C@H]3C[C@@]12O[C@@H]1O[C@H](CO)[C@@H](O)[C@H](O)[C@H]1O [Paeoniflorin]	0	–
NCCC(O)(P(=O)([O-])O)P(=O)([O-])O.[Na+].[Na+] [Pamidronate Disodium]	0	–
Cc1ccc(Nc2nccc(N(C)c3ccc4c(C)n(C)nc4c3)n2)cc1S(N)(=O)=O [Pazopanib]	0	–
CCCCC1C(=O)N(c2ccccc2)N(c2ccccc2)C1=O [Phenylbutazone]	0	–
CC[C@@H]1/C=C(\C)C[C@H](C)C[C@H](OC)[C@H]2O[C@@](O)(C(=O)C(=O)N3CCCC[C@H]3C(=O)O[C@H](/C(C)=C/[C@@H]3CC[C@H](Cl)[C@H](OC)C3)[C@H](C)[C@@H](O)CC1=O)[C@H](C)C[C@@H]2OC [Pimecrolimus]	1.11	EC50 [2]: 5300 nM
CCc1ccc(CCOc2ccc(CC3SC(=O)NC3=O)cc2)nc1 (stereo not drawn) [Pioglitazone]	0	–
Nc1cccc2c1C(=O)N(C1CCC(=O)NC1=O)C2=O (stereo not drawn) [Pomalidomide]	0	EC50 [2]: 0.158 nM
C[C@]12C=CC(=O)C=C1CC[C@@H]1[C@@H]2C(=O)C[C@@]2(C)[C@H]1CC[C@]2(O)C(=O)CO [Prednisone]	0	–
CNNCc1ccc(C(=O)NC(C)C)cc1 [Procarbazine HCl]	0	–
CNC(=O)c1cc(Oc2ccc(NC(=O)Nc3ccc(Cl)c(C(F)(F)F)c3)c(F)c2)ccn1 [Regorafenib]	1.85	EC50 [2]: > 10000 nM
CN(CCOc1ccc(CC2SC(=O)NC2=O)cc1)c1ccccn1 (stereo not drawn) [Rosiglitazone]	0	–
N#CC[C@H](C1CCCC1)n1cc(-c2ncnc3[nH]ccc23)cn1 [Ruxolitinib]	0	–
CCCC(=O)[O-].[Na+] [Sodium butyrate]	0	–
CNC(=O)c1cc(Oc2ccc(NC(=O)Nc3ccc(Cl)c(C(F)(F)F)c3)cc2)ccn1 [Sorafenib]	1.79	EC50 [2]: 9620 nM
CC1=C(CC(=O)O)c2cc(F)ccc2/C1=C\c1ccc([S+](C)[O-])cc1 (stereo not drawn) [Sulindac]	0	EC50 [2]: 50 nM
CCN(CC)CCNC(=O)c1c(C)[nH]c(/C=C2\C(=O)Nc3ccc(F)cc32)c1C [Sunitinib Malate]	0	EC50 [2]: 10 nM
C=CC[C@@H]1/C=C(\C)C[C@H](C)C[C@H](OC)[C@H]2O[C@@](O)(C(=O)C(=O)N3CCCC[C@H]3C(=O)O[C@H](/C(C)=C/[C@@H]3CC[C@@H](O)[C@H](OC)C3)[C@H](C)[C@@H](O)CC1=O)[C@H](C)C[C@@H]2OC [Tacrolimus]	0	–
CC/C(=C(\c1ccccc1)c1ccc(OCCN(C)C)cc1)c1ccccc1 [Tamoxifen Citrate]	0	–
CCOC(=O)[C@H](CCc1ccccc1)N[C@H]1CS[C@H](c2cccs2)CN(CC(=O)O)C1=O [Temocapril HCl]	0	–
O=C1CCC(N2C(=O)c3ccccc3C2=O)C(=O)N1 (stereo not drawn) [Thalidomide]	0	–
C[C@@H]1CCN(C(=O)CC#N)C[C@@H]1N(C)c1ncnc2[nH]ccc12 [Tofacitinib citrate]	0	–
